Tests used:
Test in all cases: radiometric filter-binding kinase assay, Kinase HotSpot
Conditions in all cases: compound 0.5 µM; ATP 10 µM
MAPK13 (human) = MAPK13 (human) (UniProt O15264)
LCK (human) = LCK (human) (UniProt P06239)
CDK7 CCNH MNAT1 (human) = CDK7 CCNH MNAT1 (human) (UniProt P50613+P51948+P51946)
CDK2 CCNA2 (human) = CDK2 CCNA2 (human) (UniProt P24941+P20248)
MAPK3 (human) = MAPK3 (human) (UniProt P27361)
ZAP70 (human) = ZAP70 (human) (UniProt P43403)
MAP3K3 (human) = MAP3K3 (human) (UniProt Q99759)
MUSK (human) = MUSK (human) (UniProt O15146)
DMPK (human) = DMPK (human) (UniProt Q09013)
MINK1 (human) = MINK1 (human) (UniProt Q8N4C8)
AURKC (human) = AURKC (human) (UniProt Q9UQB9)
FER (human) = FER (human) (UniProt P16591)
FLT1 (human) = FLT1 (human) (UniProt P17948)
ROCK2 (human) = ROCK2 (human) (UniProt O75116)
CDK6 CCND1 (human) = CDK6 CCND1 (human) (UniProt Q00534+P24385)
ROS1 (human) = ROS1 (human) (UniProt P08922)
ERBB4 (human) = ERBB4 (human) (UniProt Q15303)
ACVR1B (human) = ACVR1B (human) (UniProt P36896)
TEC (human) = TEC (human) (UniProt P42680)
FGFR1 (human) = FGFR1 (human) (UniProt P11362)
TEK (human) = TEK (human) (UniProt Q02763)
DAPK3 (human) = DAPK3 (human) (UniProt O43293)
PHKG2 (human) = PHKG2 (human) (UniProt P15735)
PDGFRB (human) = PDGFRB (human) (UniProt P09619)
GRK5 (human) = GRK5 (human) (UniProt P34947)
TYRO3 (human) = TYRO3 (human) (UniProt Q06418)
CSF1R (human) = CSF1R (human) (UniProt P07333)
PAK6 (human) = PAK6 (human) (UniProt Q9NQU5)
[1] = biological target: TYK2 JH1 catalytic (human) (UniProt P29597)
CSNK1G1 (human) = CSNK1G1 (human) (UniProt Q9HCP0)
MAP3K8 (human) = MAP3K8 (human) (UniProt P41279)
EPHA4 (human) = EPHA4 (human) (UniProt P54764)
CDK5 CDK5R1 p35 (human) = CDK5 CDK5R1 p35 (human) (UniProt Q00535+Q15078)
NEK3 (human) = NEK3 (human) (UniProt P51956)
KIT (human) = KIT (human) (UniProt P10721)
PLK2 (human) = PLK2 (human) (UniProt Q9NYY3)
TNK2 (human) = TNK2 (human) (UniProt Q07912)
STK25 (human) = STK25 (human) (UniProt O00506)
PRKCD (human) = PRKCD (human) (UniProt Q05655)
PIM2 (human) = PIM2 (human) (UniProt Q9P1W9)
CLK1 (human) = CLK1 (human) (UniProt P49759)
AKT2 (human) = AKT2 (human) (UniProt P31751)

Chain of TYK2 JH1 catalytic (human) (P29597 whole entry, looked up): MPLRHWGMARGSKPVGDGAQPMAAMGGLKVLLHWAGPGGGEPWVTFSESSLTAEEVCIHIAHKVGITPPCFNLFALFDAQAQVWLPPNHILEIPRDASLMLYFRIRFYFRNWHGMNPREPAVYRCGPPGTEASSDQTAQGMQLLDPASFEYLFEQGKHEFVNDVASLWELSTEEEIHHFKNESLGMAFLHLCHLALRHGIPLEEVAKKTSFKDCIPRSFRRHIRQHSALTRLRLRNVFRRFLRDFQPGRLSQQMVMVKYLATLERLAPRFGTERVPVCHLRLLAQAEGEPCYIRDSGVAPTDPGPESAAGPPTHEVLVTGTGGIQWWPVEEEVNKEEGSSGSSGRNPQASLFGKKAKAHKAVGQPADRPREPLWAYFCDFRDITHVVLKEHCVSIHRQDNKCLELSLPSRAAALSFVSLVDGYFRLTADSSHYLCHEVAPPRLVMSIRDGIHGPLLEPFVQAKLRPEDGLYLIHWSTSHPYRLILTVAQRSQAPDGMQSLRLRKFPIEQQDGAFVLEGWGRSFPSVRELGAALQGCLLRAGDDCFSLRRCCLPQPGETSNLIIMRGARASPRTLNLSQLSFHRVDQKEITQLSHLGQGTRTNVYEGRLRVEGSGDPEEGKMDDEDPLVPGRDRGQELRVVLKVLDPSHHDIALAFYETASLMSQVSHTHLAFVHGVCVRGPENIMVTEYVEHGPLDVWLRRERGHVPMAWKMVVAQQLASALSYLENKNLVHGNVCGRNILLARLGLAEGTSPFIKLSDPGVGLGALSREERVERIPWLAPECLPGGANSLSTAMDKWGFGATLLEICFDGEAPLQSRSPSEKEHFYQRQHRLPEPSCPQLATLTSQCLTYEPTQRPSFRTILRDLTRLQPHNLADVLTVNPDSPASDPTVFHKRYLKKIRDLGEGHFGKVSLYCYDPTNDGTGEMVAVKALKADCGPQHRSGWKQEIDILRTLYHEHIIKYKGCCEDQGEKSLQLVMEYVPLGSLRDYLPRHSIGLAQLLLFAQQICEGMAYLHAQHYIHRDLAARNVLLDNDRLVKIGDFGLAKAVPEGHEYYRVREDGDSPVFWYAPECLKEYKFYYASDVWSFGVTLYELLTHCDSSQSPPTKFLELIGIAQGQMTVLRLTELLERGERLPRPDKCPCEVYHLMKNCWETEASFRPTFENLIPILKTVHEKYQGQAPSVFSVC
Chain of ERBB4 (human) (Q15303 whole entry, looked up): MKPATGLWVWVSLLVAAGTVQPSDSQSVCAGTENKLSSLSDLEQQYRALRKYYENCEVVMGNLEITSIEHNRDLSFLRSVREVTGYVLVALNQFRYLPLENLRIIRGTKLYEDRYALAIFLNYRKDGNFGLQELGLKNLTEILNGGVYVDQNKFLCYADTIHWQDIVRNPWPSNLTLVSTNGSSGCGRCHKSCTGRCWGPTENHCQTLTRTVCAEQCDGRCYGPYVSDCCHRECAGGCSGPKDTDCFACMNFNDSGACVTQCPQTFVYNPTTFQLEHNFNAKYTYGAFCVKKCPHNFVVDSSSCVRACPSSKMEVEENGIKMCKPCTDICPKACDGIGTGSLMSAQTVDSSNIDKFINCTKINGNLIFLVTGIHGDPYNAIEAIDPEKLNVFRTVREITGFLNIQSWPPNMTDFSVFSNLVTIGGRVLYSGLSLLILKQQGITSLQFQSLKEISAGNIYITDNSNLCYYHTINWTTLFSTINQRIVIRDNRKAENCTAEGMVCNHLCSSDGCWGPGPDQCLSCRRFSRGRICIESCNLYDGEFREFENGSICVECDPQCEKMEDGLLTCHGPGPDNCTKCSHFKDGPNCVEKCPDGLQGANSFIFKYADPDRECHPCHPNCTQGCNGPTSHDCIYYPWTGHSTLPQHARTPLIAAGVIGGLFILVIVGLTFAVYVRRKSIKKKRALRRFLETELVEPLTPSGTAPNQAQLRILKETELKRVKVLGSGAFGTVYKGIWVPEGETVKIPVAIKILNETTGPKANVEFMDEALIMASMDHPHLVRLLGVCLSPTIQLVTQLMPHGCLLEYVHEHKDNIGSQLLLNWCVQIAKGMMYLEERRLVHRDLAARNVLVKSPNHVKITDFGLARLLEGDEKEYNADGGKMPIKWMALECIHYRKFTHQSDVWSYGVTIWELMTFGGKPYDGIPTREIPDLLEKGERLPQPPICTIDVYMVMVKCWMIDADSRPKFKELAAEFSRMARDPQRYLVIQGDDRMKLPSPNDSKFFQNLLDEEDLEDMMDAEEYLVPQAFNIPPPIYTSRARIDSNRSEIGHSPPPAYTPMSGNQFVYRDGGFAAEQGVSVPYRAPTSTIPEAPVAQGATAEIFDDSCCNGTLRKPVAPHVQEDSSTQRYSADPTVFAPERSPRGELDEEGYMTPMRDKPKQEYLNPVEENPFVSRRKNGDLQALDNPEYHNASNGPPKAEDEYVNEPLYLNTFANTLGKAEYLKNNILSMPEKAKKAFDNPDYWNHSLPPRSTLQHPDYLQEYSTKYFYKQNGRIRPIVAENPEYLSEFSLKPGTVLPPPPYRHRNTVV
Chain of ZAP70 (human) (P43403 whole entry, looked up): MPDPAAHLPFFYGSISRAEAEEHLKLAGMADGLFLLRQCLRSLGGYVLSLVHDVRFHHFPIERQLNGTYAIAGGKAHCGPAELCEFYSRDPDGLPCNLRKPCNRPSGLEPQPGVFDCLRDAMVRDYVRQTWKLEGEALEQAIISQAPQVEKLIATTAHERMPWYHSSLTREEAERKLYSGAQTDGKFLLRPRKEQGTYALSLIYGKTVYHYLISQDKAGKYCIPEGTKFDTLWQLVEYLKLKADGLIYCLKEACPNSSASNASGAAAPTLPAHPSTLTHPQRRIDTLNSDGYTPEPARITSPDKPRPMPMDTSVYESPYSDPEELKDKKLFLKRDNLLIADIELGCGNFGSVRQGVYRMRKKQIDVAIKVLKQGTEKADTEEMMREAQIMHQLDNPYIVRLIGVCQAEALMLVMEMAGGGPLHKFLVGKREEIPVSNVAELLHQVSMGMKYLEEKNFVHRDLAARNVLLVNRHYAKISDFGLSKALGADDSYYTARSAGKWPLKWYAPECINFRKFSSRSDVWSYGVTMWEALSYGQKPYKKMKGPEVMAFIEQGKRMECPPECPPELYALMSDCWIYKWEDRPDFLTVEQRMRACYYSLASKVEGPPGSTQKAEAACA
Chain of CSF1R (human) (P07333 whole entry, looked up): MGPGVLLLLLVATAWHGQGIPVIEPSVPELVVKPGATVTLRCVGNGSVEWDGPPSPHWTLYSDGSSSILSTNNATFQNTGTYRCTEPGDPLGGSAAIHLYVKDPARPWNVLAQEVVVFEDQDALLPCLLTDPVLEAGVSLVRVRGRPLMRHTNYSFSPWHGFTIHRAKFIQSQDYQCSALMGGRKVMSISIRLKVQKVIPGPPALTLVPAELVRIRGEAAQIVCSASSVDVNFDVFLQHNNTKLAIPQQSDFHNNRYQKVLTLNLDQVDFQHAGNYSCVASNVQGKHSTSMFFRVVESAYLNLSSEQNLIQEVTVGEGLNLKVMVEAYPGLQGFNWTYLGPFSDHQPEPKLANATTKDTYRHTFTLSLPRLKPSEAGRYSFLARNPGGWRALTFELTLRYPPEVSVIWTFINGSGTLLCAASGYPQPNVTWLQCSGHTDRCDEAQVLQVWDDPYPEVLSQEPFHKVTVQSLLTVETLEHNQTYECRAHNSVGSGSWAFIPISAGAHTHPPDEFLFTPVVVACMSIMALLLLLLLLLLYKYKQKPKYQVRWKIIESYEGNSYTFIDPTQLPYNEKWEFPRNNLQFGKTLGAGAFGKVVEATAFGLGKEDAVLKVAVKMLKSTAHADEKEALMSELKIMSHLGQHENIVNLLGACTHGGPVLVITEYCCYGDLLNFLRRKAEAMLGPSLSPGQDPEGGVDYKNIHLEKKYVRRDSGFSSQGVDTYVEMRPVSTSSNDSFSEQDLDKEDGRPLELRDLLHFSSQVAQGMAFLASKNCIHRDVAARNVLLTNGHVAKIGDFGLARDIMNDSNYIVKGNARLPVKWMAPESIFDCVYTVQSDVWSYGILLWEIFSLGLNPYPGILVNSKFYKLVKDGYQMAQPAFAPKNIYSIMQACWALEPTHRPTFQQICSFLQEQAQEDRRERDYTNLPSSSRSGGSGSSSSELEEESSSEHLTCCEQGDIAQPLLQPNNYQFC
Chain of PHKG2 (human) (P15735 whole entry, looked up): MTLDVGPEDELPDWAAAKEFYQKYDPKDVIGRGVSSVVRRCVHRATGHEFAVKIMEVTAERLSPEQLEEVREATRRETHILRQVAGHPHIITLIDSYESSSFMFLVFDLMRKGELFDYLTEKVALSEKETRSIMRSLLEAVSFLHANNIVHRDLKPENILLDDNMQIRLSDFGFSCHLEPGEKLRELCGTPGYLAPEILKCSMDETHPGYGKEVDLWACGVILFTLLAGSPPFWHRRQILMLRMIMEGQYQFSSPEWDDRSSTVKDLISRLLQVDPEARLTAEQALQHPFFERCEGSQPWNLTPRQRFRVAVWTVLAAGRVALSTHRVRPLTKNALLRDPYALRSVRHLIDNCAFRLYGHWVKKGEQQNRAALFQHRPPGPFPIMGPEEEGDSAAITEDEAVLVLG
Chain of STK25 (human) (O00506 whole entry, looked up): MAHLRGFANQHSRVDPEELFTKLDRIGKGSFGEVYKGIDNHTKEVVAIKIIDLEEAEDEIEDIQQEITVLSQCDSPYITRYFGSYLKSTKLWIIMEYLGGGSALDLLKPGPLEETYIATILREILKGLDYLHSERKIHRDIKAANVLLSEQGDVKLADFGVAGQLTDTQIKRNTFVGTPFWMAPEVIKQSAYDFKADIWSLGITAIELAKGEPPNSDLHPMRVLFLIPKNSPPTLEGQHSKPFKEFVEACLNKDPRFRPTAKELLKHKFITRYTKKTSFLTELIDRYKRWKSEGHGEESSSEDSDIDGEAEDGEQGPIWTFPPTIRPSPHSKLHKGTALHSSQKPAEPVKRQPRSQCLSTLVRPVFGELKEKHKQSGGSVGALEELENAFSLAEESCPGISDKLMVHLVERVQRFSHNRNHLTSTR

Q: For `O=C(CCCc1ccc(-c2ccccc2F)cc1)Nc1ccc(O)cc1`, which residual activity (MAPK13 (human)) is on record?
A: 103%

Q: And the residual activity (LCK (human))?
A: 95.5%

Q: And the residual activity (CDK7 CCNH MNAT1 (human))?
A: 101%

Q: What about the residual activity (CDK2 CCNA2 (human)) of the same molecule?
A: 92.7%

Q: What about the residual activity (MAPK3 (human)) of the same molecule?
A: 132%

Q: And the residual activity (ZAP70 (human))?
A: 99.7%

Q: And the residual activity (MAP3K3 (human))?
A: 108%

Q: And the residual activity (MUSK (human))?
A: 93.1%

Q: And the residual activity (DMPK (human))?
A: 130%

Q: And the residual activity (MINK1 (human))?
A: 97.3%

Q: And the residual activity (AURKC (human))?
A: 95.4%

Q: And the residual activity (FER (human))?
A: 103%

Q: And the residual activity (FLT1 (human))?
A: 93.1%

Q: What about the residual activity (ROCK2 (human)) of the same molecule?
A: 90.5%

Q: What about the residual activity (CDK6 CCND1 (human)) of the same molecule?
A: 98.2%

Q: What about the residual activity (ROS1 (human)) of the same molecule?
A: 98.4%

Q: And the residual activity (ERBB4 (human))?
A: 107%

Q: What about the residual activity (ACVR1B (human)) of the same molecule?
A: 95.9%

Q: And the residual activity (TEC (human))?
A: 86%

Q: What about the residual activity (FGFR1 (human)) of the same molecule?
A: 98%

Q: What about the residual activity (TEK (human)) of the same molecule?
A: 101%

Q: What about the residual activity (DAPK3 (human)) of the same molecule?
A: 104%

Q: What about the residual activity (PHKG2 (human)) of the same molecule?
A: 102%

Q: And the residual activity (PDGFRB (human))?
A: 98.2%

Q: And the residual activity (GRK5 (human))?
A: 98.4%

Q: And the residual activity (TYRO3 (human))?
A: 98.2%

Q: What about the residual activity (CSF1R (human)) of the same molecule?
A: 104%

Q: And the residual activity (PAK6 (human))?
A: 108%

Q: What about the residual activity [1] of the same molecule?
A: 96.5%

Q: What about the residual activity (CSNK1G1 (human)) of the same molecule?
A: 104%

Q: And the residual activity (MAP3K8 (human))?
A: 101%

Q: And the residual activity (EPHA4 (human))?
A: 99.2%

Q: What about the residual activity (CDK5 CDK5R1 p35 (human)) of the same molecule?
A: 92.5%

Q: What about the residual activity (NEK3 (human)) of the same molecule?
A: 109%

Q: And the residual activity (KIT (human))?
A: 96.3%

Q: What about the residual activity (PLK2 (human)) of the same molecule?
A: 102%

Q: And the residual activity (TNK2 (human))?
A: 99.2%

Q: What about the residual activity (STK25 (human)) of the same molecule?
A: 105%

Q: What about the residual activity (PRKCD (human)) of the same molecule?
A: 110%

Q: What about the residual activity (PIM2 (human)) of the same molecule?
A: 115%

Q: What about the residual activity (CLK1 (human)) of the same molecule?
A: 101%

Q: What about the residual activity (AKT2 (human)) of the same molecule?
A: 101%

Q: Which residual activity (MAPK13 (human)) does the source give for `Cn1cnc2cc3c(Nc4cccc(Br)c4)ncnc3cc21` here?
A: 101%

Q: What about the residual activity (LCK (human)) of the same molecule?
A: 47.7%

Q: And the residual activity (CDK7 CCNH MNAT1 (human))?
A: 99.5%

Q: What about the residual activity (CDK2 CCNA2 (human)) of the same molecule?
A: 90.1%

Q: What about the residual activity (MAPK3 (human)) of the same molecule?
A: 109%

Q: What about the residual activity (ZAP70 (human)) of the same molecule?
A: 110%

Q: What about the residual activity (MAP3K3 (human)) of the same molecule?
A: 109%

Q: And the residual activity (MUSK (human))?
A: 85.3%

Q: And the residual activity (DMPK (human))?
A: 98.4%

Q: What about the residual activity (MINK1 (human)) of the same molecule?
A: 82.1%

Q: What about the residual activity (AURKC (human)) of the same molecule?
A: 96.5%

Q: And the residual activity (FER (human))?
A: 90.6%

Q: What about the residual activity (FLT1 (human)) of the same molecule?
A: 77.4%

Q: And the residual activity (ROCK2 (human))?
A: 88.5%

Q: What about the residual activity (CDK6 CCND1 (human)) of the same molecule?
A: 107%

Q: What about the residual activity (ROS1 (human)) of the same molecule?
A: 99.9%

Q: What about the residual activity (ERBB4 (human)) of the same molecule?
A: 75.5%

Q: What about the residual activity (ACVR1B (human)) of the same molecule?
A: 111%

Q: And the residual activity (TEC (human))?
A: 123%

Q: What about the residual activity (FGFR1 (human)) of the same molecule?
A: 89.6%

Q: And the residual activity (TEK (human))?
A: 98.9%

Q: What about the residual activity (DAPK3 (human)) of the same molecule?
A: 93.7%

Q: And the residual activity (PHKG2 (human))?
A: 103%

Q: And the residual activity (PDGFRB (human))?
A: 99.7%

Q: And the residual activity (GRK5 (human))?
A: 109%

Q: And the residual activity (TYRO3 (human))?
A: 94.5%

Q: And the residual activity (CSF1R (human))?
A: 94.4%

Q: And the residual activity (PAK6 (human))?
A: 95%

Q: What about the residual activity [1] of the same molecule?
A: 112%

Q: What about the residual activity (CSNK1G1 (human)) of the same molecule?
A: 104%

Q: What about the residual activity (MAP3K8 (human)) of the same molecule?
A: 90.1%

Q: What about the residual activity (EPHA4 (human)) of the same molecule?
A: 80.7%

Q: And the residual activity (CDK5 CDK5R1 p35 (human))?
A: 84.6%

Q: And the residual activity (NEK3 (human))?
A: 88.2%

Q: What about the residual activity (KIT (human)) of the same molecule?
A: 78.6%

Q: What about the residual activity (PLK2 (human)) of the same molecule?
A: 101%

Q: What about the residual activity (TNK2 (human)) of the same molecule?
A: 87.3%

Q: What about the residual activity (STK25 (human)) of the same molecule?
A: 99%

Q: What about the residual activity (PRKCD (human)) of the same molecule?
A: 91.8%

Q: What about the residual activity (PIM2 (human)) of the same molecule?
A: 113%

Q: And the residual activity (CLK1 (human))?
A: 102%

Q: What about the residual activity (AKT2 (human)) of the same molecule?
A: 106%

Q: `CC(C)[C@H](CO)Nc1nc(Nc2cc(N)cc(Cl)c2)c2ncn(C(C)C)c2n1` was tested. Which residual activity (MAPK13 (human)) did it give?
A: 101%

Q: What about the residual activity (LCK (human)) of the same molecule?
A: 70.2%

Q: What about the residual activity (CDK7 CCNH MNAT1 (human)) of the same molecule?
A: 54.7%

Q: And the residual activity (MAPK3 (human))?
A: 106%

Q: What about the residual activity (ZAP70 (human)) of the same molecule?
A: 102%

Q: What about the residual activity (MAP3K3 (human)) of the same molecule?
A: 100%

Q: And the residual activity (MUSK (human))?
A: 46%

Q: What about the residual activity (DMPK (human)) of the same molecule?
A: 99.7%

Q: And the residual activity (MINK1 (human))?
A: 94.5%

Q: And the residual activity (AURKC (human))?
A: 91.9%

Q: What about the residual activity (FER (human)) of the same molecule?
A: 54.9%

Q: What about the residual activity (FLT1 (human)) of the same molecule?
A: 97.5%

Q: What about the residual activity (ROCK2 (human)) of the same molecule?
A: 101%

Q: What about the residual activity (ROS1 (human)) of the same molecule?
A: 96.5%

Q: And the residual activity (ERBB4 (human))?
A: 131%

Q: And the residual activity (ACVR1B (human))?
A: 107%

Q: And the residual activity (TEC (human))?
A: 130%

Q: And the residual activity (FGFR1 (human))?
A: 76.7%

Q: And the residual activity (TEK (human))?
A: 92.5%

Q: What about the residual activity (DAPK3 (human)) of the same molecule?
A: 96.7%

Q: What about the residual activity (PHKG2 (human)) of the same molecule?
A: 105%

Q: And the residual activity (PDGFRB (human))?
A: 98.1%

Q: What about the residual activity (GRK5 (human)) of the same molecule?
A: 101%

Q: And the residual activity (TYRO3 (human))?
A: 103%

Q: And the residual activity (CSF1R (human))?
A: 71.1%

Q: And the residual activity (PAK6 (human))?
A: 57.3%

Q: What about the residual activity [1] of the same molecule?
A: 57.9%

Q: And the residual activity (CSNK1G1 (human))?
A: 26.4%

Q: What about the residual activity (MAP3K8 (human)) of the same molecule?
A: 109%

Q: And the residual activity (EPHA4 (human))?
A: 61.4%

Q: What about the residual activity (CDK5 CDK5R1 p35 (human)) of the same molecule?
A: 0.133%

Q: And the residual activity (NEK3 (human))?
A: 100%

Q: What about the residual activity (KIT (human)) of the same molecule?
A: 86.2%

Q: And the residual activity (PLK2 (human))?
A: 92%

Q: And the residual activity (TNK2 (human))?
A: 47.8%

Q: What about the residual activity (STK25 (human)) of the same molecule?
A: 81.8%

Q: And the residual activity (PRKCD (human))?
A: 87.6%

Q: And the residual activity (PIM2 (human))?
A: 113%

Q: And the residual activity (CLK1 (human))?
A: 51.9%

Q: And the residual activity (AKT2 (human))?
A: 100%
